Assay type in all cases: cell-based
For experiment [1], the system named is murine spleen lymphocytes. Put plainly: Cytokine stimulation of murine spleen lymphocytes, ELISA. The conditions noted are these: mouse immune cells (spleen lymphocytes), 24 hrs, ELISA; for EC50: Lymphocyte. As for the experimental part: The stimulating effect of a series of GY compounds or drugs on murine spleen lymphocytes was detected by ELISA.
6-week-old Balb/c mice were sacrificed by cervical dislocation, spleens were taken under aseptic conditions. A 1 mL sterile syringe and a 200 mesh cell strainer were adopted to quickly grind and disperse the spleen into individual cells in 4 mL of a murine lymphocyte separation solution (Dakko's, 7211011). A resulting cell homogenate was transferred to a 15 mL centrifuge tube, then 1 mL of a RPMI 1640 medium (Hyclone, SH30809.01) was slowly added. Spleen lymphocytes were separated by a density gradient centrifugation method (800×g, 30 min), washed, red blood cells therein were lysed, such that a dispersed spleen lymphocyte suspension was obtained. Cells were counted by a hemocytometer, to calculate the cell concentration. A RPMI 1640 complete medium was adopted to adjust the cell suspension to a concentration of 1×10^6/ml/well, and the cells were then plated on a 24-well cell culture plate (Corning, 3524).
Murine spleen lymphocytes were stimulated according to the gradient concentrations of the series of GY compounds or drugs, and incubated in a 37° C., 5% carbon dioxide incubator for 24 hrs.
• (1) Coating: a Capture antibody (primary antibody, purchased from Invitrogen) was diluted with a 1×Coating Buffer (coating buffer, purchased from Invitrogen) to a recommended concentration, and 100 μL of a resulting diluted solution was added to each well of a 96-well microtiter plate, the plate was sealed with a sealing film at 4° C. overnight. • (2) Washing: a liquid in each well was discarded, then 300 μL of a PBST working solution was added to each well and kept for 1 min, thereafter, the liquid therein was discarded. The washing process was repeated 3 times. • (3) Blocking: 200 μL of a blocking solution was added to each well. The plate was sealed with a sealing film, and placed on a shaker and incubated at room temperature for 1 hr, then washed and patted to be dry. • (4) Sample incubation: a sample was collected and centrifuged to collect a supernatant. Standards, samples, negative controls, and blank controls were provided in the 96-well microtiter plate, and each concentration or sample were provided with 2 replicates. 100 μL of a standard or sample was added to each well, thereafter, the plate was sealed with a sealing film, incubated on a shaker at room temperature for 1 hr or overnight at 4° C., then washed and pated to be dry. • (5) Secondary antibody incubation: the detection antibody (secondary antibody, purchased from Invitrogen) was diluted to a recommended concentration with a dilution buffer, 100 μL of a secondary antibody was added to each well. After being sealed with a sealing film, the plate was incubated on a shaker at room temperature for 1 hr, then washed and patted to be dry. • (6) Avidin-HRP incubation: Avidin-HRP (horseradish peroxidase marker, purchased from Invitrogen) was diluted to the recommended concentration with a dilution buffer, 100 μL of Avidin-HRP was added to each well. After being sealed with a sealing film, the plate was placed on a shaker and incubated at room temperature for 30 mins, washed 5-7 times by the process of step 2), and patted to be dry. • (7) TMB color development: 100 μL of a TMB color development solution (purchased from Invitrogen) was added to each well, for carrying out reaction for 15 mins at room temperature in the dark. • (8) Stopping reaction: 50 μL of 1M H2SO4 solution was added to each well. • (9) Reading an absorbance value by a microplate reader: the OD value at 450 nm wavelength was read. A standard curve and a parameter nonlinear regression equation were drawn, and a sample concentration was calculated according to the obtained formula.

In experiment [2] the test system is human lymphoma Daudi B cells. Put plainly: CCK8 growth inhibition, Daudi B. The following applies: CCK8 method; read-out: IC50 of inhibitory activity on tumor cell growth, Daudi B. On the technique in general: Formazan colour is commonly taken as a measure of viable cells.
Experiment [3] concerns human lymphoma Raji cells. The experiment is described as follows: CCK8 growth inhibition, Raji. The conditions noted are these: CCK8 method; read-out: IC50 of inhibitory activity on tumor cell growth, Raji.
A further experiment concerns the target T1, TLR7 (Homo sapiens, UniProt Q9NYK1).
T1 construct: host or cells: HEK-Blue hTLR7 cells (HEK293-derived SEAP reporter line)
T1 sequence (Q9NYK1 27-1049): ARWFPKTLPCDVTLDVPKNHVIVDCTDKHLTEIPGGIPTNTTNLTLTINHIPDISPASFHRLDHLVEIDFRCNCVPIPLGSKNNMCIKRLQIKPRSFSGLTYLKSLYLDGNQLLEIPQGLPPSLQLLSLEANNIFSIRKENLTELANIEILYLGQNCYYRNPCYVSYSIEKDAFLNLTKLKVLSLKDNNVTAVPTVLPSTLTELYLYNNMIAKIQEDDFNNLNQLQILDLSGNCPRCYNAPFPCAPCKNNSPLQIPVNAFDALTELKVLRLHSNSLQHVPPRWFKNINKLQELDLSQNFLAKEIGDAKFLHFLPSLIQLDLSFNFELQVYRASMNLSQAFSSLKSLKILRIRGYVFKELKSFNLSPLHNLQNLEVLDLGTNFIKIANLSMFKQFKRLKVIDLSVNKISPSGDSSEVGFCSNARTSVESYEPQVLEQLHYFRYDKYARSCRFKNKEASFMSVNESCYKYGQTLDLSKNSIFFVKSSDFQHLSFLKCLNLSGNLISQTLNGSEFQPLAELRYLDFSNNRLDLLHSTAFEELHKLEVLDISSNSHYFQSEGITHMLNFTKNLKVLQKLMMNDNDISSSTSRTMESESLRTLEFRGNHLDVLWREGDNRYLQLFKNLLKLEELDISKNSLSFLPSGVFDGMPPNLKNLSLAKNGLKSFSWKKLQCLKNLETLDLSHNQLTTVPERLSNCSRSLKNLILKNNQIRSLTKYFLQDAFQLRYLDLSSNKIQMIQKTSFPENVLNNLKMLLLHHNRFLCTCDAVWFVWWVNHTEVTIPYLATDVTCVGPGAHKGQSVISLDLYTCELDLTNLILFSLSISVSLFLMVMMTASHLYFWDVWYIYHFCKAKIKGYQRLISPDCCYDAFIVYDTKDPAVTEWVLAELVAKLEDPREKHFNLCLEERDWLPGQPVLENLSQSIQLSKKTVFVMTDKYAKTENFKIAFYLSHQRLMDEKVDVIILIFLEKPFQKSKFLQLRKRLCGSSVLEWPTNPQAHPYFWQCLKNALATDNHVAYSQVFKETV
Put plainly: Detection of TLR7 activation (HEK-Blue Detection), SEAP reporter. The following applies: HEK-Blue hTLR7 cells, 6-16 hrs, absorbance 650 nm; read-out: TLR7(EC50/μM). As for the experimental part:
HEK-Blue™hTLR7 cells (purchased from InvivoGen) in a logarithmic growth phase were taken, with a growth medium (Gibco, C11995500BT, Invivo Gen, ant-nr) discarded. The cells were gently rinsed twice by an appropriate amount of 37° C. PBS (Hyclone, SH30256.01), a rinsed PBS was discarded. Thereafter, the cells were added with 2-5 mL of 37° C. PBS, incubated for 1 to 2 minutes, and then scraped by a cell scraper and gently pipetted to be dispersed into a single cell suspension. A hemocytometer was adopted to count the cells and a cell concentration was calculated. After that, a HEK-Blue™ Detection solution (purchased from Invivo Gen) was adopted to adjust the cell concentration of the cell suspension to 2.5×10^4/180 μL per well for cell plating on a 96-well cell culture plate. The HEK-Blue™hTLR7 cells were stimulated according to the designed series of GY compound or drug concentrations (0.01 μM, 0.1 μM, 1 μM, 5 μM, 15 μM, and 30 μM), with 3 replicate wells for each concentration, and were incubated at 37° C., 5% carbon dioxide for 6-16 hrs. After the incubation, the absorbance value was read at 650 nm with a full-wavelength microplate reader (BioTek-Epoch), as listed in Table 2.
Relative induction=(average OD value of experimental group−average OD value of negative control group)/average OD value of negative control group.
Specific details for the above method may be referred to https: • //www.invivogen.com/hek-blue-htlr7; https://www.invivogen.com/sites/default/files/invivogen/products/files/hek_blue_htlr7_tds.pdf.

Experiment [4] deals with murine leukemia WEHI-3 cells. The experiment is described as follows: CCK8 growth inhibition, WEHI-3. The conditions noted are these: Mus musculus, CCK8 method, read-out: IC50 of inhibitory activity on tumor cell growth, WEHI-3.
In experiment [5] the test system is human leukemia HL-60 cells. Put plainly: CCK8 growth inhibition, HL60. The conditions noted are these: CCK8 method; read-out: IC50 of inhibitory activity on tumor cell growth, HL60.
The next experiment relates to A549. The experiment is described as follows: CCK8 growth inhibition, A549. The conditions noted are these: Homo sapiens, CCK8 method, read-out: IC50 of inhibitory activity on tumor cell growth, A549.
[6] abbreviates: read-out: TNF-alpha EC50 of cytokine stimulating activity.

Where two headings read alike, the source gives them in different places.

Usually IC50 stands for the concentration at which inhibition is half-maximal. Take `C=C(CC(=O)NCCOCCOCCOCCn1cc(Cn2c(O)nc3c(N)nc(OCCCC)nc32)nn1)C(=O)N1CCC(C2CCNc3c(C(N)=O)c(-c4ccc(Oc5ccccc5)cc4)nn32)CC1` (single isomer, unassigned) [GY132]: the values for the EC50 (in experiment [1] (setting [6]); on TLR7) were 2.15 µM and 5.42 µM, respectively. Also, the “IFN-gamma EC50 of cytokine stimulating activity” value in experiment [1] is “No fit”. In addition, in experiment [1], the “IL-6 EC50 of cytokine stimulating activity” value is “No fit”. In addition, the IC50 in experiment [2] turned out to be 5.36 µM; in experiment [3] it was 2.03 µM; in experiment [4] it was 14.7 µM; in experiment [5], 5.13 µM.
Consider `C=C(CC(=O)NCCOCCOCCOCCn1cc(Cn2c(O)nc3c(N)nc(OCCCC)nc32)nn1)C(=O)N1CCC(C2CCNc3c(C(N)=O)c(-c4ccc(Oc5ccccc5)cc4)nn32)CC1` (single isomer, unassigned) [GY137], for which the IC50 amounted to 24.6 µM in experiment [2], 37.2 µM in experiment [3] and 27 µM in experiment [5]. Moreover, the EC50 on TLR7 was determined as 2.92 µM.
In the case of `CCCCOc1nc(N)c2nc(O)n(Cc3cn(CCOCCOCCOCC(=O)Nc4cc(Nc5nccc(-c6cn(C)c7ccccc67)n5)c(OC)cc4N(C)CCN(C)C)nn3)c2n1` [GY104], the EC50 in experiment [1] (read-out: IL-6 EC50 of cytokine stimulating activity) worked out at 27.7 µM; in experiment [1] (setting [6]), 34.7 µM. Further, the “IFN-gamma EC50 of cytokine stimulating activity” value in experiment [1] was “No fit”. Also, the IC50 in the experiment with A549 turned out to be 17.1 µM.
`CCCCOc1nc(N)c2nc(O)n(Cc3cn(CCOCCOCCOCC(=O)N4CCN(C/C=C/C(=O)N5CCCC(n6nc(-c7ccc(Oc8ccccc8)cc7)c7c(N)ncnc76)C5)CC4)nn3)c2n1` (stereo not drawn) [GY138]: in experiment [4], the IC50 turned out to be 47.6 µM.
The same measure, in the same setting: the figure for `C=C(CC(=O)N1CCC(C2CCN=C3C(C(N)=O)=C(c4ccc(Oc5ccccc5)cc4)NN32)CC1)C(=O)NCCOCCOCCOCCn1cc(Cn2c(O)nc3c(N)nc(OCCCC)nc32)nn1` (stereo not drawn) [GY150] is 22.3 µM.

The values are drawn from US12440571B2, “Immune agonists” (SHENZHEN UNIVERSITY, priority 2020, dated 2025).
